Where a SMILES comes first, the peptide text is derived from it. The star is where a group is joined. Cbz = O=C(OCc1ccccc1)*
Tests used:
Colo205 = assay: SRB assay, colon cancer cell growth inhibition; format: cell-based; settings: Homo sapiens, COLO 205, 48 h
Procedure: (§1) A series of 4-phenyl-N-(thieno[2,3-b]pyrazin-3-yl)piperazine-1-carboxamides derivatives 7a–7i were tested for the colon cancer cell growth inhibition effect using the SRB assay (Table 2). […] Compounds 7a and 7b, containing chlorine at the C6 position of thieno[2,3-b]pyrazine ring, have weaker anticancer activity than its proton-containing derivatives 7c–7i. On the other hand, 7c has shown higher inhibition activity than 7d with methyl substituents at the C3 and C5 positions of the phenyl ring. […] Substitutions with one fluorine atom in the phenyl ring could not improve the inhibition effect of the compounds 7g–7h.
(§2) The HCT116, HCT8, KM12, HCT15, HT29, COLO-205, SW620 cell line was obtained from the National Cancer Institute (Material Transfer Agreement number: 2702–09). DLD1 cell line was obtained from the Korean cell line bank. Cells were cultured in complete Roswell Park Memorial Institute (RPMI) 1640 medium (Hyclone, South Logan, UT, USA) containing 10% fetal bovine serum (Hyclone, South Logan, UT, USA) in an atmosphere of 5% CO2 and 100% humidity at 37 °C. A small interfering RNA (siRNA) duplex targeting human c-Jun and FBXW7 (Genolution, Seoul, Korea) were introduced into cells using Lipofector-EXT (AptaBio, Yongin, Korea), according to the manufacturer’s instructions. As negative controls, cells were incubated with Lipofector-EXT (AptaBio, Yongin, KOR) and a negative siRNA (Genolution, Seoul, Korea).
(§3) Cells (100 μL containing 5000–10,000 cells/well) were incubated in 96 well microtiter plates. After 24 h, drugs were added (100 μL) to each well and the cultures were incubated for 48 h at 37 °C. The cells were then fixed in TCA (50 μL per well). The plates were incubated for a minimum of 1 h or a maximum of 3 h at 4 °C. The liquid was removed from the plate, which was then rinsed five times with water and allowed to dry at room temperature (rt) for approximately 12–24 h. The fixed cells were stained with 100 μL Sulforhodamine B (SRB) solution for 5 min at rt. After staining, the plate was washed three times with 1% glacial acetic acid and dried at rt for approximately 12–24 h. The SRB was then solubilized in 10 mM Tris buffer, and the absorbance was read at 515 nm. The effect of the drugs was expressed as GI50 (50% growth inhibition).

SW620 = assay: SRB assay, colon cancer cell growth inhibition; format: cell-based; settings: Homo sapiens, SW-620, 48 h
Procedure: as §1, §2, §3

HT29 = assay: SRB assay, colon cancer cell growth inhibition; format: cell-based; settings: Homo sapiens, HT-29, 48 h
Procedure: as §1, §2, §3

HCT15 = assay: SRB assay, colon cancer cell growth inhibition; format: cell-based; settings: Homo sapiens, HCT-15, 48 h
Procedure: as §1, §2, §3

HCT8 = assay: SRB assay, colon cancer cell growth inhibition; format: cell-based; settings: Homo sapiens, HCT-8, 48 h
Procedure: as §1, §2, §3

HCT116 = assay: SRB assay, colon cancer cell growth inhibition; format: cell-based; settings: Homo sapiens, HCT-116
Procedure: as §1, §2, §3

KM12 = assay: SRB assay, colon cancer cell growth inhibition; format: cell-based; settings: Homo sapiens, 48 h
Procedure: as §1, §2, §3

[1] = Pharmacokinetics in SD rats; format: in vivo; settings: male, Sprague-Dawley, rat, plasma
Procedure: Sprague–Dawley rats (adult males, 250–300 g) were fasted overnight, and the femoral vein (for iv administration of the compound) and jugular vein (for blood sampling) of each rat were cannulated with polyethylene tubing. The selected compounds dissolved in 30% polyethylene glycol (PEG) in saline were administered either intravenously or orally. At various time points after administration, blood samples (0.5 mL) were collected from the jugular vein, transferred to heparin-coated tubes, centrifuged to separate off the plasma. The plasma was stored at −80 °C until assayed. Compound concentrations in plasma were determined by LC/MS/MS analysis (API4000 mass spectrometer, Applied Biosystem, Waltham, MA, USA). Pharmacokinetic parameters were analyzed using the WinNonlin software program. The area under the curve (AUC) was calculated using the trapezoidal rule extrapolated to infinity. The terminal elimination half-life, systemic clearance, and volume of distribution at steady state were determined. The extent of absolute oral bioavailability (F) was estimated by comparing the AUC values after intravenous and oral administration of the compounds.

FBXW7/c-Jun interaction = assay: Immunoprecipitation, ubiquitination and FBXW7/c-Jun interaction; format: cell-based, human; settings: HCT116 and DLD1; DGG200064 50 nM 18 h; MG132 10 μM 6 h
From the text: To investigate whether the ubiquitination of c-Jun is suppressed through the inhibition of c-Jun and FBXW7 binding by DGG200064, c-Jun immunoprecipitation was done to observe protein–protein interaction (Figure 4). E3 ligase, such as FBXW7, binds the protein to the ubiquitin chain through covalent bonds and rapidly degrades the protein through 26S proteasome. When treated with MG132 as a proteasome inhibitor, the ubiquitination of c-Jun increased compared to both control HCT116 and DLD1 cells. In contrast, the c-Jun ubiquitination was inhibited by DGG200064. The binding between c-Jun and FBXW7 was reduced with DGG200064 treatment. The FBXW7 protein, also known as CDC4, is a component of the SCF complex ubiquitin ligase and is known as a modulator of several substrates including cyclin E, c-Myc, c-Jun, and Notch. To check the selectivity of DGG200064 towards FBXW7 substrates, the change of c-Jun, cyclin E, and c-Myc by DGG200064 was analyzed. […] Cyclin E immunoprecipitation was done to test whether the ubiquitination of cyclin E by FBXW7 is inhibited by DGG200064 in HCT116 (Figure S2b, Supplementary Materials). There were no changes in cyclin E ubiquitination with DGG200064 treatment.
To identified ubiquitination of c-Jun by DGG200064, HCT116 cells were treated with/without MG132 (10 μM) for 6h, DGG200064 (50 nM) for 18 h. The cell lysate was prepared using RIPA buffer for immunoprecipitation. Each lysate was mixed with antibodies (1 μg/mL) of c-Jun or MYC at 4 °C overnight in immunoprecipitation buffer containing 50 mM Tris-Cl,150 mM NaCl, 1 mM EDTA, 0.5% Triton X-100, pH 7.4, and reacted with 10 μL of protein A/G beads UltraLink Resin (50:50 resin: buffer slurry condition) (Peirce, #35133) for 2 h on RT for precipitation. After reaction and centrifugation at 3000 rpm for 3 min, the immunoprecipitated samples were washed with 500 μL of immunoprecipitation buffer by tapping and centrifuged. The washing was repeated five times before western blotting.

[2] = quoted in docking discussion, cell line not stated there (values match HCT116)

SMILES | GI50 (Colo205) [nM] | GI50 (SW620) [nM] | GI50 (HT29) [nM] | GI50 (HCT15) [nM] | GI50 (HCT8) [nM] | GI50 (HCT116; HCT116, SRB, 48 h) [nM] | GI50 (HCT116; [2]) [nM] | GI50 (KM12) [nM] | Cmax ([1]; no unit, species or route stated in b12 (7c value equals SD rats PO of Table 3)) [ng/mL] | bioavailability ([1]; species and route not stated in b12 (7c value equals SD rats PO of Table 3), read-out: bioavailability (F)) [%] | c-Jun ubiquitination (FBXW7/c-Jun interaction)
COc1cc(OC)cc(N2CCN(C(=O)Nc3nc4sc(Cl)cc4nc3OC)CC2)c1 [Compound 7a, N-(6-chloro-2-methoxythieno[2,3-b]pyrazin-3-yl)-4-(3,5dimethoxyphenyl)piperazine-1-carboxamide] | 173 | 427 | 408 | 484 | 761 | 344 | ≥ 100 | 273 |  |  | 
COc1nc2cc(Cl)sc2nc1NC(=O)N1CCN(c2cc(C)cc(C)c2)CC1 [Compound 7b, N-(6-chloro-2-methoxythieno[2,3-b]pyrazin-3-yl)-4-(3,5-dimethylphenyl)piperazine-1-carboxamide] | 900 | 273 | 342 | 437 | 900 | 244 |  | 244 |  |  | 
COc1nc2ccsc2nc1NC(=O)N1CCN(c2cc(C)cc(C)c2)CC1 [Compound 7d, 4-(3,5-Dimethylphenyl)-N-(2-methoxythieno[2,3-b]pyrazin-3-yl)piperazine-1 carboxamide] | 40 | 38 | 26 | 38 | 59 | 33 |  | 32 |  |  | 
COc1nc2ccsc2nc1NC(=O)N1CCN(c2cc(F)cc(F)c2)CC1 [Compound 7e, 4-(3,5-Difluorophenyl)-N-(2-methoxythieno[2,3-b]pyrazin-3-yl)piperazine-1-carboxamide] | 287 | 288 | 672 | 507 | 269 | 307 | ≥ 100 | 426 |  |  | 
COc1cc(C)cc(N2CCN(C(=O)Nc3nc4sccc4nc3OC)CC2)c1 [Compound 7f, 4-(3-methoxy-5-methylphenyl)-N-(2-methoxythieno[2,3-b]pyrazin-3-yl)piperazine-1-carboxamide] | 28 | 34 | 21 | 36 | 37 | 1.9 |  | 21 | 195 | 21.8 | 
COc1cc(F)cc(N2CCN(C(=O)Nc3nc4sccc4nc3OC)CC2)c1 [Compound 7g, 4-(3-Fluoro-5-methoxyphenyl)-N-(2-methoxythieno[2,3-b]pyrazin-3-yl)piperazine-1-carboxamide] | 14 | 29 | 57 | 30 | 39 | 45 |  | 22 |  |  | 
COc1nc2ccsc2nc1NC(=O)N1CCN(c2cc(C)cc(F)c2)CC1 [Compound 7h, 4-(3-Fluoro-5-methylphenyl)-N-(2-methoxythieno[2,3-b]pyrazin-3-yl)piperazine-1-carboxamide] | 28 | 40 | 29 | 42 | 51 | 32 |  | 38 |  |  | 
CCOc1nc2ccsc2nc1NC(=O)N1CCN(c2cc(OC)cc(OC)c2)CC1 [Compound 7i, 4-(3,5-dimethoxyphenyl)-N-(2-ethoxythieno[2,3-b]pyrazin-3-yl)piperazine-1-carboxamide] | 35 | 53 | 35 | 68 | 58 | 71 |  | 74 |  |  | 
CC(C)C[C@@H](C=O)NC(=O)[C@H](CC(C)C)NC(=O)[C@H](CC(C)C)NC(=O)OCc1ccccc1 [MG132, reference compound] (Cbz-Leu-Leu-Leu-aldehyde) |  |  |  |  |  |  |  |  |  |  | increased

Source: publication PMC9143821, “Design and Synthesis of a Novel 4-aryl-N-(2-alkoxythieno [2,3-b]pyrazine-3-yl)-4-arylpiperazine-1-carboxamide DGG200064 Showed Therapeutic Effect on Colon Cancer through G2/M Arrest” (Pharmaceuticals, 2022)
